pIC50: −log10 of the molar value.
Assays:
Assay type in all cases: cell-based
[1] = tested on: normal hepatocytes; assay: Sensitivity to growth inhibition, normal hepatocytes
[2] = tested on: HCC202; assay: Sensitivity to growth inhibition, HCC202; details: Luminal breast carcinoma, AR−
[3] = tested on: HT1080; assay: Sensitivity to growth inhibition, HT1080; details: fibrosarcoma AR−
[4] = tested on: CAMA1; assay: Sensitivity to growth inhibition, CAMA1; details: Luminal breast carcinoma, AR+
[5] = tested on: MiaPaca; assay: Sensitivity to growth inhibition, MiaPaca; details: pancreatic adenocarcinoma, AR−
[6] = tested on: AU565; assay: Sensitivity to growth inhibition, AU565; details: Luminal breast carcinoma, AR+
[7] = tested on: MRC5; assay: Sensitivity to growth inhibition, MRC5; details: normal fibroblasts, AR−
[8] = tested on: CWR22R; assay: cells
[9] = tested on: VCaP; assay: Sensitivity to growth inhibition, VCaP; details: castration resistant prostate cancer, Armut
[10] = tested on: Hep3B; assay: Sensitivity to growth inhibition, Hep3B; details: hepatocellular carcinoma, AR +
[11] = tested on: MCF10A; assay: Sensitivity to growth inhibition, MCF10A; details: mammary gland epithelium
[12] = tested on: MDAMB415; assay: Sensitivity to growth inhibition, MDAMB415; details: Luminal breast carcinoma, AR+
[13] = tested on: SUM185PE; assay: Sensitivity to growth inhibition, SUM185PE; details: Luminal breast carcinoma, AR+
[14] = tested on: RCC45; assay: Sensitivity to growth inhibition, RCC45; details: renal cell carcinoma, AR−
[15] = tested on: SKRC45; assay: Sensitivity to growth inhibition, SKRC45; details: renal cell carcinoma, AR−
[16] = tested on: PPC1; assay: Sensitivity to growth inhibition, PPC1; details: castration resistant prostate cancer, AR−
[17] = tested on: HMEC; assay: Sensitivity to growth inhibition, HMEC; details: normal breast
[18] = tested on: EFM192A; assay: Sensitivity to growth inhibition, EFM192A; details: Luminal breast carcinoma, AR−
[19] = tested on: MCF7; assay: Sensitivity to growth inhibition, MCF7; details: Luminal breast carcinoma, AR+
[20] = tested on: UACC893; assay: Sensitivity to growth inhibition, UACC893; details: Luminal breast carcinoma, AR+
[21] = tested on: PC3; assay: Inhibition of growth / toxicity in non-target PC3 cells; details: castration resistant prostate cancer, AR−
Protocol: (§1) This example provides a table (below) of the compounds of the present disclosure and their activity towards four different cell lines (i.e., CWR22R, HeLa, PC3, and MDA-MB-231). The IC50 for inhibition of growth is divided into 4 categories: A<1 μM, B 1-5 μM, C 5-20 μM, D>20 μM.
(§2) All compounds were tested for toxicity using 4 cells lines, target cells—CWR22R and non-target cells, Hela, PC3 and MDA-MB-231 (FIGS. 1A-F).

[22] = tested on: MDA-MB-231; assay: Inhibition of growth / toxicity in non-target MDA-MB-231 cells; details: Homo sapiens
Protocol: as §1, §2

[23] = tested on: ZR7530; assay: Sensitivity to growth inhibition, ZR7530; details: Luminal breast carcinoma, AR+
[24] = tested on: BT474; assay: Sensitivity to growth inhibition, BT474; details: Luminal breast carcinoma, AR+
[25] = tested on: MDAMB453; assay: Sensitivity to growth inhibition, MDAMB453; details: Luminal breast carcinoma, AR+
[26] = tested on: PANC1; assay: Sensitivity to growth inhibition, PANC1; details: pancreatic adenocarcinoma, AR−
[27] = tested on: HCC1419; assay: Sensitivity to growth inhibition, HCC1419; details: Luminal breast carcinoma, AR+
[28] = tested on: C4-2; assay: Sensitivity to growth inhibition, C4-2; details: castration resistant prostate cancer, AR+
[29] = tested on: HepG2; assay: Sensitivity to growth inhibition, HepG2; details: hepatocellular carcinoma, AR +
[30] = tested on: Du145; assay: Sensitivity to growth inhibition, Du145; details: castration resistant prostate cancer, AR−
[31] = tested on: LNCaP; assay: Sensitivity to growth inhibition, LNCaP; details: castration resistant prostate cancer, AR+
[32] = tested on: ACHN; assay: Sensitivity to growth inhibition, ACHN; details: renal cell carcinoma, AR−
[33] = tested on: ZR751; assay: Sensitivity to growth inhibition, ZR751; details: Luminal breast carcinoma, AR+
[34] = tested on: T47D; assay: Sensitivity to growth inhibition, T47D; details: Luminal breast carcinoma, AR+
[35] = tested on: NKE; assay: Sensitivity to growth inhibition, NKE; details: normal kidney, AR−
[36] = tested on: Hela; assay: Inhibition of growth / toxicity in non-target Hela cells
Protocol: as §1, §2

CCCn1c2ccccc2c2cc(C(C)=O)ccc21 [Compound 1-3, 1-(9-propyl-9H-carbazol-3-yl)ethanone]
Compound 1-3 sensitivity [1]: R
Compound 1-3 sensitivity [2]: S
Compound 1-3 sensitivity [3]: R
Compound 1-3 sensitivity [4]: R
Compound 1-3 sensitivity [5]: R
Compound 1-3 sensitivity [6]: S
Compound 1-3 sensitivity [7]: R
Compound 1-3 sensitivity ([8]; CWR22R, castration resistant prostate cancer, AR+): S
pIC50 ([8]; Homo sapiens, 22Rv1, CWR22R, read-out: IC50 for inhibition of growth): > 6.00
Compound 1-3 sensitivity [9]: R
Compound 1-3 sensitivity [10]: S
Compound 1-3 sensitivity [11]: R
Compound 1-3 sensitivity [12]: S
Compound 1-3 sensitivity [13]: S
Compound 1-3 sensitivity [14]: R
Compound 1-3 sensitivity [15]: R
Compound 1-3 sensitivity [16]: R
Compound 1-3 sensitivity [17]: R
Compound 1-3 sensitivity [18]: S
Compound 1-3 sensitivity [19]: S
Compound 1-3 sensitivity [20]: R
Compound 1-3 sensitivity [21]: R
pIC50 [22]: < 4.70
Compound 1-3 sensitivity [23]: S
Compound 1-3 sensitivity [24]: S
Compound 1-3 sensitivity [25]: S
Compound 1-3 sensitivity [26]: R
Compound 1-3 sensitivity [27]: R
Compound 1-3 sensitivity [28]: S
Compound 1-3 sensitivity [29]: S
Compound 1-3 sensitivity [30]: R
Compound 1-3 sensitivity [31]: S
Compound 1-3 sensitivity [32]: R
Compound 1-3 sensitivity [33]: S
Compound 1-3 sensitivity [34]: S
Compound 1-3 sensitivity [35]: R
Compound 1-3 sensitivity ([36]; Hela, cervix adenocarcinoma, AR−): R
pIC50 ([36]; Homo sapiens, HeLa): < 4.70
